According to patent publication US20230011916A1, “METHODS OF CANCER TREATMENT USING ANTI-OX40 ANTIBODIES IN COMBINATION WITH PI3 KINASE DELTA INHIBITORS” (BEIGENE, LTD., priority 2019, published 2023):

Columns and labels:
Format in all cases: in vivo, mouse
CT26WT cells = assay: CT26WT syngeneic colon carcinoma model in BALB/c mice; conditions: Compound 2A 10 mg/kg p.o.
Experimental: CT26WT cells are of colon cancer origin. Female BALB/c mice were subcutaneously implanted with 1×10^5 CT26WT cells in 100 μL PBS in the right flank. After inoculation, mice were randomized into 4 groups according to inoculation order. The mice were treated with vehicle (0.5% MC) as a control. Antibody 1A7.grl (sequence disclosed in US2015/0307617) was confirmed to bind mouse OX40 in house.
[…] Compound 2A was administered as single agent at 10 mg/kg twice a day by oral gavage. The 1A7.gr1 antibody in combination with Compound 2A was administered as combination therapy at the same doses described above for each therapeutic given as a single agent. Tumor volume was determined twice weekly, and the TGI calculated as described above.

EMT-6 cells = assay: EMT-6 syngeneic breast cancer model in BALB/c mice
Experimental: EMT-6 cells are of murine breast cancer origin. Female BALB/c mice were implanted intramammary with 5×10^4 EMT-6 cells per 100 μL PBS mice in the second right papilla. After inoculation, mice were randomized into 4 groups with 25 animals in each group according to inoculation order.
The mice were treated with vehicle (0.5% MC), OX86 (a murine specific anti-OX40 antibody), Compound 1 (PI3Kdelta inhibitor), and the combination of OX86 and Compound 1, respectively. OX86 was given at 0.4 mg/kg once per week (QW) by intraperitoneal (i.p.) injection, and Compound 1 was administered at 30 mg/kg twice per day (BID) by oral gavage (p.o.). Tumor volume was determined twice weekly and tumor growth inhibition was determined using the formula described in Example 14 above.

A20 cells = assay: A20 syngeneic B cell lymphoma model in BALB/c mice; conditions: Compound 1 10 mg/kg p.o.
Experimental: A20 cells are of B cell lymphoma origin. Female BALB/c mice were subcutaneously implanted with 1×10^5 A20 cells in 150 μL PBS mice in the right flank. After inoculation, mice were randomized into 4 groups with 25 animals in each group according to inoculation order. The mice were treated with vehicle (0.5% MC), OX86 (a murine specific anti-OX40 antibody), Compound 1, and the combination of OX86 and Compound 1. OX86 was given at 0.4 mg/kg once a week by intraperitoneal injection, and Compound 1 was administered at 10 mg/kg twice a day by oral gavage. Tumor volume was determined twice weekly and the TGI calculated as described above.

[1] = OX86 0.4 mg/kg QW i.p., Compound 1 30 mg/kg BID p.o.

SMILES | Mean Tumor Volume on Day 25 (mean ± SEM) (CT26WT cells; 1A7.gr1 2 mg/kg QW i.p.) | Tumor Free Animals at Day 35 (CT26WT cells; 1A7.gr1 2 mg/kg QW i.p.) | TGI on Day 25 (CT26WT cells; 1A7.gr1 2 mg/kg QW×4 i.p.) | Mean Tumor Volume on Day 22 (mean ± SEM) (EMT-6 cells; [1]) | Tumor Free Animal (EMT-6 cells; [1]) | TGI on Day 22 (EMT-6 cells; OX86 0.4 mg/kg QW×4 i.p., Compound 1 30 mg/kg BID×22 p.o.) | Mean Tumor Volume on Day 26 (mean ± SEM) (A20 cells; OX86 0.4 mg/kg QW i.p.) | Tumor Free Animals at Day 47 (A20 cells; OX86 0.4 mg/kg QW i.p.) | TGI on Day 26 (A20 cells; OX86 0.4 mg/kg QW×4 i.p.)
CC(C)Oc1c([C@H](C)c2nc(Cl)c3c(N)nccn23)cc(Cl)c(F)c1-c1ccc(C(F)(F)F)nc1 [Compound 2A, 1-chloro-3-(1-(5-chloro-4-fluoro-2-isopropoxy-3-(6-(trifluoromethyl)pyridin-3-yl)phenyl)ethyl) imidazo[1,5-a]pyrazin-8-amine] | 941.6 ± 207.8 mm^3 | 7% | 58% |  |  |  |  |  | 
Cc1nc([C@@H](C)c2cc(Cl)c(F)c(C(=O)NCCN3CCN(C)CC3)c2OC(C)C)n2ccnc(N)c12 [Compound 1, (S)-3-(1-(8-amino-1-methylimidazo[1,5-a]pyrazin-3-yl)ethyl)-5-chloro-6-fluoro-2-isopropoxy-N-(2-(4-methylpiperazin-1-yl)ethyl)benzamide] |  |  |  | 758.1 ± 100.6 mm^3 | 4% | 26% | 683.9 ± 89.7 mm^3 | 0% | 7%
